Here are results for 10 compounds from PubChem BioAssay AID1259407 (Chemical Carcinogenesis Research Information System (CCRIS), 2018).

The series deals with CCRIS mutagenicity, Ames/micronucleus/aberration tests. In words: CCRIS mutagenicity studies.
Where [1] appears, read: Test System: AMES SALMONELLA TYPHIMURIUM, Strain/Indicator: TA98, Metabolic Activation: NONE, Method: STANDARD PLATE.
Setting [2] is: Test System: AMES SALMONELLA TYPHIMURIUM, Strain/Indicator: TA100, Metabolic Activation: NONE, Method: STANDARD PLATE.
The mark [3] stands for this setting: Test System: AMES SALMONELLA TYPHIMURIUM, Strain/Indicator: TA1537, Metabolic Activation: NONE, Method: STANDARD PLATE.
Setting [4] is: Test System: CHINESE HAMSTER V-79, Strain/Indicator: V-79/8-AZAGUANINE, Metabolic Activation: NONE, Method: STANDARD PLATE.
[5] abbreviates: Test System: AMES SALMONELLA TYPHIMURIUM, Strain/Indicator: TA98, Metabolic Activation: RAT, LIVER, S-9, AROCLOR 1254, Method: STANDARD PLATE.
Where [6] appears, read: Test System: AMES SALMONELLA TYPHIMURIUM, Strain/Indicator: TA100, Metabolic Activation: RAT, LIVER, S-9, AROCLOR 1254, Method: STANDARD PLATE.

Calls of active or inactive are those of the source. The rule behind the calls is not given here.

Turning to `C=CCOC(=O)CC(C)C`, the mutagenic call (End Point: IN VITRO CHROMOSOMAL ABERRATIONS, Test System: CHO CELLS, Metabolic Activation: NONE) is “inactive; negative”; the mutagenic call (Test System: AMES SALMONELLA TYPHIMURIUM, Strain/Indicator: TA98, Metabolic Activation: HAMSTER, LIVER, S-9, AROCLOR 1254, Method: PREINCUBATION) is “inactive; negative”; the mutagenic call (Test System: AMES SALMONELLA TYPHIMURIUM, Strain/Indicator: TA98, Metabolic Activation: NONE, Method: PREINCUBATION) is “inactive; negative”; the mutagenic call (Test System: AMES SALMONELLA TYPHIMURIUM, Strain/Indicator: TA98, Metabolic Activation: RAT, LIVER, S-9, AROCLOR 1254, Method: PREINCUBATION) was “inactive; negative”; the mutagenic call (Test System: AMES SALMONELLA TYPHIMURIUM, Strain/Indicator: TA100, Metabolic Activation: HAMSTER, LIVER, S-9, AROCLOR 1254, Method: PREINCUBATION) is “inactive; negative”; the mutagenic call (Test System: AMES SALMONELLA TYPHIMURIUM, Strain/Indicator: TA100, Metabolic Activation: NONE, Method: PREINCUBATION) is “inactive; negative”. Besides, the mutagenic call reads like this: (Test System: AMES SALMONELLA TYPHIMURIUM, Strain/Indicator: TA100, Metabolic Activation: RAT, LIVER, S-9, AROCLOR 1254, Method: PREINCUBATION) “inactive; negative”; (Test System: AMES SALMONELLA TYPHIMURIUM, Strain/Indicator: TA1535, Metabolic Activation: HAMSTER, LIVER, S-9, AROCLOR 1254, Method: PREINCUBATION) “inactive; negative”; (Test System: AMES SALMONELLA TYPHIMURIUM, Strain/Indicator: TA1535, Metabolic Activation: NONE, Method: PREINCUBATION) “inactive; negative”; (Test System: AMES SALMONELLA TYPHIMURIUM, Strain/Indicator: TA1535, Metabolic Activation: RAT, LIVER, S-9, AROCLOR 1254, Method: PREINCUBATION) “inactive; negative”; (Test System: AMES SALMONELLA TYPHIMURIUM, Strain/Indicator: TA1537, Metabolic Activation: HAMSTER, LIVER, S-9, AROCLOR 1254, Method: PREINCUBATION) “inactive; negative”; (Test System: AMES SALMONELLA TYPHIMURIUM, Strain/Indicator: TA1537, Metabolic Activation: NONE, Method: PREINCUBATION) “inactive; negative”. Also, under “Test System: AMES SALMONELLA TYPHIMURIUM, Strain/Indicator: TA1537, Metabolic Activation: RAT, LIVER, S-9, AROCLOR 1254, Method: PREINCUBATION”, the mutagenic call is “inactive; negative”.

On to `c1ccc2c(c1)-c1cc3ccc4ccccc4c3cc1C1OC21` (configuration not stated), for which the mutagenic call by setting is: under setting [1], “inactive; negative”; under setting [2], “inactive; negative”; under setting [3], “active; positive”; under setting [4], “active; positive”.

On to `O[C@@H]1[C@H]2O[C@H]2c2c(ccc3ccc4ccccc4c23)[C@H]1O`, for which the mutagenic call is, setting by setting: (Test System: E. COLI, Strain/Indicator: CL101P, Metabolic Activation: NONE, Method: PREINCUBATION) “active; positive”; (Test System: E. COLI, Strain/Indicator: CL102P, Metabolic Activation: NONE, Method: PREINCUBATION) “active; positive”; (Test System: E. COLI, Strain/Indicator: CL103P, Metabolic Activation: NONE, Method: PREINCUBATION) “active; positive”; (Test System: E. COLI, Strain/Indicator: CL104P, Metabolic Activation: NONE, Method: PREINCUBATION) “active; positive”; (Test System: E. COLI, Strain/Indicator: CL105P, Metabolic Activation: NONE, Method: PREINCUBATION) “active; positive”; (Test System: E. COLI, Strain/Indicator: CL106P, Metabolic Activation: NONE, Method: PREINCUBATION) “active; positive”.

In the case of `CC(=O)OC[C@H]1OC(OC(C)=O)[C@H](NC(=O)N(C)N=O)[C@@H](OC(C)=O)[C@@H]1OC(C)=O` (some centres not stated), the mutagenic call under setting [4] was “active; positive”.

Regarding `CN(C)CCNS(=O)(=O)c1cccc2cccnc12`, the mutagenic call under setting [1] is “inactive; negative”; the mutagenic call under setting [5] was “inactive; negative”; the mutagenic call under setting [2] was “inactive; negative”; the mutagenic call under setting [6] is “inactive; negative”; the mutagenic call (Test System: AMES SALMONELLA TYPHIMURIUM, Strain/Indicator: TA1535, Metabolic Activation: NONE, Method: STANDARD PLATE) is “inactive; negative”; the mutagenic call (Test System: AMES SALMONELLA TYPHIMURIUM, Strain/Indicator: TA1535, Metabolic Activation: RAT, LIVER, S-9, AROCLOR 1254, Method: STANDARD PLATE) is “inactive; negative”. Moreover, the mutagenic call is, setting by setting: under setting [3], “inactive; negative”; (Test System: AMES SALMONELLA TYPHIMURIUM, Strain/Indicator: TA1537, Metabolic Activation: RAT, LIVER, S-9, AROCLOR 1254, Method: STANDARD PLATE) “inactive; negative”.

Take `N#[N+]c1ccc(CO)cc1`: the mutagenic call is “active; positive” (Test System: AMES SALMONELLA TYPHIMURIUM, Strain/Indicator: TA102, Metabolic Activation: NONE, Method: STANDARD PLATE) and “active; positive” (Test System: CHINESE HAMSTER V-79, Strain/Indicator: V-79/6-THIOGUANINE, Metabolic Activation: NONE).

Take `CNc1ccc(N=Nc2ccc(N(C)C(C)=O)cc2)cc1`: the mutagenic call runs as follows: (Test System: AMES SALMONELLA TYPHIMURIUM, Strain/Indicator: TA98, Metabolic Activation: RAT, LIVER, S-9, POLYCHLORINATED BIPHENYLS, Method: PREINCUBATION) “active; positive”; (Test System: AMES SALMONELLA TYPHIMURIUM, Strain/Indicator: TA100, Metabolic Activation: RAT, LIVER, S-9, POLYCHLORINATED BIPHENYLS, Method: PREINCUBATION) “active; positive”.

As to `O=C1CCC(=O)N1Br`, the mutagenic call is, setting by setting: (Test System: AMES SALMONELLA TYPHIMURIUM, Strain/Indicator: TA98, Metabolic Activation: HAMSTER, LIVER, S-9, AROCLOR 1254 (10%), Method: STANDARD PLATE) “inactive; negative”; under setting [1], “inactive; negative”; (Test System: AMES SALMONELLA TYPHIMURIUM, Strain/Indicator: TA98, Metabolic Activation: RAT, LIVER, S-9, AROCLOR 1254 (10%), Method: STANDARD PLATE) “inactive; negative”; (Test System: AMES SALMONELLA TYPHIMURIUM, Strain/Indicator: TA100, Metabolic Activation: HAMSTER, LIVER, S-9, AROCLOR 1254 (10%), Method: STANDARD PLATE) “active; positive”; under setting [2], “inactive; negative”; (Test System: AMES SALMONELLA TYPHIMURIUM, Strain/Indicator: TA100, Metabolic Activation: RAT, LIVER, S-9, AROCLOR 1254 (10%), Method: STANDARD PLATE) “active; positive”. Moreover, the mutagenic call runs as follows: (Test System: MOUSE LYMPHOMA, Strain/Indicator: L5178Y (TK+/TK-), Metabolic Activation: NONE, Method: SUSPENSION/PLATE) “active; positive. reevaluation of results: equivocal”; (Test System: MOUSE LYMPHOMA, Strain/Indicator: L5178Y (TK+/TK-), Metabolic Activation: RAT, LIVER, S-9, AROCLOR 1254, Method: SUSPENSION/PLATE) “inactive; negative. reevaluation of results: negative”.

Turning to `Cc1ccc2c(c1)C(C)c1cc(C)ccc1-2`, the mutagenic call was “inactive; negative” under setting [5] and “inactive; negative” under setting [6].

For the compound `C=C(C)C(C)Cl` (configuration not stated), the mutagenic call (Test System: AMES SALMONELLA TYPHIMURIUM, Strain/Indicator: TA100, Metabolic Activation: NONE, Method: LIQUID SUSPENSION) was “active; positive”.
